# Assay results published in US8242151B2, “Tricyclic compounds” (Kyowa Hakko Kirin Co., Ltd., priority 2007, dated 2012).
# Key:
# [1] = target: T1, GAL4-PPARγ chimeric nuclear receptor (human PPARγ ligand binding region) (Homo sapiens, UniProt P37231); test: Transactivation assay of PPARγ by transient gene transfer (GAL4-PPARγ luciferase reporter); assay type: cell-based; conditions: HEK293EBNA cells, 24 hr; concentration showing 50% of efficacy; activity relative to pioglitazone 10 μmol/L = 100%
# T1 construct: expressed in transfected cells; host or cells: HEK293EBNA cells
# T1 sequence (P37231 174-475 isoform P37231-2): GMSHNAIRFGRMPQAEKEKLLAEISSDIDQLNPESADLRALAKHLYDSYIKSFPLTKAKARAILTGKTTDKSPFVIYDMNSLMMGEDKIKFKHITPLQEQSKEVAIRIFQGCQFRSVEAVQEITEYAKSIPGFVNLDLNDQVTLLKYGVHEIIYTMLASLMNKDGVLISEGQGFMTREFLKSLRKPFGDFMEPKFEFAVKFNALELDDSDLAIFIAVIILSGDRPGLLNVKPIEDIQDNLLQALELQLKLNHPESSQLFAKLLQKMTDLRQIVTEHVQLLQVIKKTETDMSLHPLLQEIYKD
# Method: The agonist activity of compound (I) to PPARγ was determined by a transactivation assay method using a chimeric nuclear receptor of a DNA binding region of a yeast transcription factor GAL4 and a PPARγ ligand binding region. Specifically, the PPARγ agonist activity of compound (I) was evaluated by the following method based on the method of Lehmann et al. (J Biol. Chem., 1995, vol. 270, page 12953).
# HEK293EBNA cells cultured in Dulbecco's Modified Eagle medium (Invitrogen) containing 10 v/v % fetal calf serum (Invitrogen) were used. 30 mL of the above-mentioned cells (density: 1×10^5 cells/mL) were inoculated in a […] culture dish (Iwaki Glass), and cultured overnight. Using SuperFect Transfection Reagent (QIAGEN), a plasmid expressing a GAL4-PPARγ chimeric nuclear receptor fusing 174-475 amino acids, which are human PPARγ ligand binding region, and 1-147 amino acids, which are GAL4 DNA binding region, and a reporter plasmid expressing a GAL4 responsive luciferase were transiently introduced into the cells at a proportion of 4:1. After 5 hr from gene introduction, the cells were detached from the culture dish, and the detached cells (density: 2×10^4 cells/mL) were inoculated by 100 μL in each well of a 96 well white plate (SUMITOMO BAKELITE), and cultured overnight. The medium was removed, compound (I) diluted in various concentrations with serum-free Dulbecco's Modified Eagle medium was added by 100 μL, and the mixture was reacted under a 5% carbon dioxide gas stream (5% CO2) at 37° C. for 24 hr. On the other hand, as a positive control, 10 μmol/L of pioglitazone (100 μL) was added, and the mixture was reacted under a 5% carbon dioxide gas stream (5% CO2) at 37° C. for 24 hr. As a substrate of luciferase, 100 μL of Steady-Glo (Promega) was added to each well and the mixture was thoroughly stirred. Immediately thereafter, the chemical luminescence due to luciferase was measured using TopCount NTX (Packard).
# The agonist activity (activity rate (%)) of compound (I) to PPARγ was calculated according to the following formula, as a relative activity when the agonist activity on addition of pioglitazone (10 μmol/L) was 100%.
# [2] = tested on: spontaneously hypertensive rats (SHR); test: Antihypertensive action by tail cuff method; assay type: in vivo, rat; conditions: oral once a day for 7 days, about 4 to 9 hr after final administration
# Method: 18- to 22-week-old spontaneously hypertensive rats (SHR) were used.
# Before drug administration, the body weight, blood pressure and heart rate of each rat were measured, and the rats were grouped such that these values are almost the same between groups. A solvent (0.5% methylcellulose solution) and a test compound were repeatedly administered orally once a day for 7 days. At about 4 to 9 hr after the final administration, systolic blood pressure and heart rate were non-invasively measured according to the following.
# The rats were placed in a cylindrical restrainer, heated to 37° C., and blood pressure and heart rate were measured under resting state using a Tail Cuff Method. For the measurement, a non-invasive blood pressure measurement apparatus (PS-600, Riken Kaihatsu, Tokyo) was used. The blood pressure and heart rate of each rat was measured 5 times, and the average was taken as the value of each rat.
# [3] = tested on: spontaneously hypertensive rats (SHR); test: Antihypertensive action by telemetry method; assay type: in vivo, rat; conditions: oral once a day for 4 days, 24 hr averages
# Excerpt: A telemetry transmitter was indwelled in the abdominal artery of spontaneously hypertensive rats (SHR), and the blood pressure and heart rate were monitored. The rats were acclimated and reared for 4 weeks or more, and only the rats with hypertension were used for the test. Before drug administration, the rats were grouped such that the blood pressure and heart rate of each rat would be of the same levels between the groups. A solvent (0.5% methylcellulose solution) and a test compound were repeatedly administered orally once a day for 4 days. The average systolic blood pressure for 24 hr, average diastolic blood pressure for 24 hr and average heart rate for 24 hr were calculated on each administration day.
EC50 [1] [nM],SMILES,"antihypertensive action (systolic blood pressure, tail cuff) [2]","antihypertensive action (blood pressure, telemetry) [3]"
527,"C/C(=C1/c2ccccc2CCc2cc(Cn3c(C4CC4)nc4c(Cl)ccnc43)ccc21)c1noc(=O)[nH]1 [Compound 95, (E)-2-(7-chloro-2-cyclopropyl-3H-imidazo[4,5-b]pyridin-3-yl)methyl-5-[1-(5-oxo-4,5-dihydro-1,2,4-oxadiazol-3-yl)ethylidene]-10,11-dihydro-5H-dibenzo[a,d]cycloheptene]",antihypertensive action,antihypertensive action
784,"CCc1nc2c(Cl)cc(C)nc2n1Cc1ccc2c(c1)CCc1ccccc1/C2=C(/C)c1noc(=O)[nH]1 [Compound 44, (E)-2-(7-chloro-2-ethyl-5-methyl-3H-imidazo[4,5-b]pyridin-3-yl)methyl-5-[1-(5-oxo-4,5-dihydro-1,2,4-oxadiazol-3-yl)ethylidene]-10,11-dihydro-5H-dibenzo[a,d]cycloheptene]",antihypertensive action,antihypertensive action
1930,"CCc1nc2c(C)ccnc2n1Cc1ccc2c(c1)CCc1ccccc1/C2=C(/C)c1nnn[nH]1 [Compound 47, (E)-2-(2-ethyl-7-methyl-3H-imidazo[4,5-b]pyridin-3-yl)methyl-5-[1-(1H-tetrazol-5-yl)ethylidene]-10,11-dihydro-5H-dibenzo[a,d]cycloheptene]",antihypertensive action,antihypertensive action
